# Measured values taken from US11801284B2, “Compositions and methods for treating motor neuron diseases” (The Trustees of Columbia University in the City of New York, priority 2017, dated 2023).
# Tests used:
# [1] = test system: luciferase; test: luciferase refolding assay (chaperone activity); assay type: biochemical; details: crude yeast lysate from cells transfected with Hspa8^G470R or WT construct; FIG. 4
# Excerpt: Expt. 2A: Does the G470R mutation affect Hspa8 chaperone activity? There is a fine balance between the chaperone activity of Hspa8, which involves ATP and the co-chaperone proteins Sgt (small […] tetratricopeptide repeat-containing protein) and CSP (cysteine string protein), and its role in microautophagy, which is effected independently of ATP and the co-chaperones^36. Altering the ratio of Hspa8 with respect to its co-chaperones, or introducing mutations in certain Hspa8 domains, can shift the balance towards or away from microautophagy and thus alter neurotransmission at the NMJ. For instance, mutations in the ATPase domain disrupt chaperone activity but leave the role of Hspa8 in microautophagy intact. In contrast, mutations in the C-terminal domain of Hspa8, which mediate the interaction of the protein with the lysosomal/endosomal membrane, abolish microautophagy but fail to affect the ability of the protein to refold proteins (chaperone activity). […] To test this, we will examine the ability of Hspa8^G470R to refold luciferase. […] The bioluminescence from the luciferase will be assayed, following the addition of Luciferase Assay reagent (Promega), at regular intervals in a luminometer or plate reader. […]
# [2] = test system: S. cerevisae; test: in vivo microautophagy assay (vacuolar membrane invagination and intraluminal vesicle formation in yeast); assay type: cell-based; details: in vivo study employing WT and Hspa8^G470R proteins
# Excerpt: Expt. 2B: Does the G470R mutation affect Hspa8-dependent microautophagy? Hspa8-dependent microautophagy relies on the ability of the protein to bind the lysosomal/endosomal membrane. In so doing, Hspa8 deforms the membrane to form tubules, a phenomenon that can be quantified using a “tubulation” assay^36. […] To test this, we will subject the two proteins and a control, Hspa8^3KA, that fails to deform membranes^36, to the tubulation assay. Essentially, bacterial lysate from E. coli over-expressing the different Hspa8 molecules will be combined with fluorescently labeled giant unilamellar vesicles (GUVs) made from a defined mixture of lipids that roughly mimic synaptic membranes^49, and the ability of the proteins to trigger membrane deformation/tubule formation will be assessed by fluorescence microscopy. To complement these in vitro experiments, we will assess the ability of Hspa8^G470R protein to deform membranes in vivo. For this, the protein and relevant controls will be separately expressed in S. cerevisae and vacuolar membrane invagination and intraluminal vesicle formation determined using a co-expressed Vba1-GFP construct as a marker^50.
# [3] = test system: SMN; test: SMN levels in spinal cord tissue of SMA mice by western blotting; assay type: in vivo; details: PND10 SMA mice, western blot, β-tubulin loading control; FIG. 7
# Protocol: PND10 mice of the indicated genotypes were euthanized, and the spinal cord tissue extracted to determine SMN levels by western blotting. β-tubulin was used as a loading control. Band intensities were determined using the NIH ImageJ software.
substance,measurement,setting,value
Hspa8^G470R: mutant Hsp70 family member protein Hspa8 with G470R missense mutation in the substrate binding domain,chaperone activity (efficiency relative to lysate containing WT Hspa8),[1],only a third as efficient
same,competence in microautophagy assay,[2],competent
same,SMN level in spinal cord tissue,[3],increases SMN
